Broadly, the IC50 is the concentration that gives 50% inhibition. Low values mean greater potency in that assay, high ones weaker potency in that assay.

In assay [1] the test system is MM1S multiple myeloma tumour cell line. In words: In vitro cytotoxicity, Microculture Tetrazolium Assay (MTT) on MM1S cells. It counts as cell-based. The conditions noted are these: Homo sapiens, MM1.S, exposed for 96 hours, cell viability by MTT. The method, then:
The cytotoxicity studies were carried out on the MM1S multiple myeloma tumour cell line. The cells are distributed onto microplates and exposed to the test compounds for 96 hours. The cell viability is then quantified by a colorimetric assay, the Microculture Tetrazolium Assay (Cancer Res., 1987, 47, 939-942).

The target of assay [2] is His-His-USP7 (aa208-560, [C315A]) (Homo sapiens (Human), UniProt Q93009, C315A). The experiment in a line: Evaluation of the inhibition of USP7 by Fluorescence Intensity (FLINT) readings. In kind it is biochemical. The note with it: 0.25 nM USP7, 60 minutes at 30° C. preincubation, 500 nM Ubiquitin-Rhodamine-110 substrate, 50% reduction in kinetic rate. The method, then: USP7 activity was measured using Rhodamine-110 c-terminal labelled Ubiquitin as a substrate (Viva Biosciences). Incubation with USP7 results in the release of Rhodamine-110 leading to an increase in fluorescence which can be used in the continuous measurement of USP7 activity.
Sequence of His-His-USP7 (aa208-560, [C315A]) (Q93009 208-560 C315A): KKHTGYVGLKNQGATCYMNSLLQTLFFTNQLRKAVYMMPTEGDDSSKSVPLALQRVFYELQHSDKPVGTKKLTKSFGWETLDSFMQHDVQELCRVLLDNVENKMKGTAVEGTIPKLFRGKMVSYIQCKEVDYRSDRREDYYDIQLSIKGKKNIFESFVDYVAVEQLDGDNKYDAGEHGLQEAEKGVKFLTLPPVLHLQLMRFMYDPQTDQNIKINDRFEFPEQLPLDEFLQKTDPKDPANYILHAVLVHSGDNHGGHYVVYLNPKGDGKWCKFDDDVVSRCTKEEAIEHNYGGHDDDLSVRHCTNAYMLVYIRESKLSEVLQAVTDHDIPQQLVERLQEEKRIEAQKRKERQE
The USP7 reactions were performed in a 50 μL volume, in 384 well black solid low binding plates (Corning #3575). The reaction buffer consisted of 100 mM Bicine pH 8.0, 0.01% TritonX100, 1 mM TCEP, and 10% DMSO.
0.25 nM His-His-USP7 (aa208-560, [C315A]) was incubated with compound (final concentration 10% DMSO) for 60 minutes at 30° C. The reaction was then initiated by the addition of 500 nM Ubiquitin-Rhodamine-110 substrate and the plate read every 3 minutes for 21 minutes to measure the release of Rhodamine-110. Fluorescence Intensity (FLINT) readings were measured using a […] Neo plate reader (Ex.485 nm, Em.535 nm).
The inhibition of increasing doses of compound was expressed as a percentage reduction in kinetic rate compared to the kinetic rates established between ‘DMSO only’ and ‘total inhibition’ controls (no USP7). The inhibitory concentrations that gave a 50% reduction in kinetic rate (IC50) were determined, from 11-point dose response curves, in XL-Fit using a 4-Parameter Logistic Model (Sigmoidal Dose-Response Model).

On to `COc1ccc(-n2ccc3c(=O)n(CC4(O)CCN(C(=O)[C@@H]5CCN(C(=O)OC(C)(C)C)C[C@H]5c5ccccc5)CC4)cnc32)cc1` [EXAMPLE 40, tert-butyl (3R,4R)-4-[4-hydroxy-4-[[7-(4-methoxyphenyl)-4-oxo-pyrrolo[2,3-d]pyrimidin-3-yl]methyl]piperidine-1-carbonyl]-3-phenyl-piperidine-1-carboxylate], for which the IC50 in assay [1] stood at 0.0315 µM; in assay [2] it was 0.0499 µM. The like results for `O=C([C@@H]1CCNC[C@H]1c1ccccc1)N1CCC(O)(Cn2cnc3c(ccn3-c3ccccc3)c2=O)CC1` [EXAMPLE 101, 3-[[4-hydroxy-1-[(3R,4R)-3-phenylpiperidine-4-carbonyl]-4-piperidyl]methyl]-7-phenyl-pyrrolo[2,3-d]pyrimidin-4-one] were, in that order, 0.272 µM and 0.0316 µM. On the same counts, the results for `COc1ccc(-n2ccc3c(=O)n(CC4(O)CCN(C(=O)[C@@H]5CCNC[C@H]5c5ccccc5)CC4)cnc32)cc1` [EXAMPLE 135, 3-[[4-hydroxy-1-[(3R,4R)-3-phenylpiperidine-4-carbonyl]-4-piperidyl]methyl]-7-(4-methoxyphenyl)pyrrolo[2,3-d]pyrimidin-4-one] are 0.135 µM and 0.0287 µM.

For the compound `CN1CC[C@@H](C(=O)N2CCC(O)(Cn3cnc4c(ccn4-c4ccc(Cl)cc4)c3=O)CC2)[C@H](c2ccccc2)C1` [EXAMPLE 153, 7-(4-chlorophenyl)-3-[[4-hydroxy-1-[(3R,4R)-1-methyl-3-phenyl-piperidine-4-carbonyl]-4-piperidyl]methyl]pyrrolo[2,3-d]pyrimidin-4-one], the IC50 was determined as 0.0747 µM in assay [1] and 0.0486 µM in assay [2]. Take `O=C([C@@H]1CCNC[C@H]1c1ccccc1)N1CCC(O)(Cn2cnc3c(cnn3-c3ccc4c(c3)OCCO4)c2=O)CC1` [EXAMPLE 165, 1-(2,3-dihydro-1,4-benzodioxin-6-yl)-5-[[4-hydroxy-1-[(3R,4R)-3-phenylpiperidine-4-carbonyl]-4-piperidyl]methyl]pyrazolo[3,4-d]pyrimidin-4-one]: the figures for the IC50 in assay [1] and in assay [2] were 0.3 µM and 0.0196 µM, respectively.

In the case of `CC(=O)N1CC[C@@H](C(=O)N2CCC(O)(Cn3cnc4c(ccn4-c4cccc(Cl)c4)c3=O)CC2)[C@H](c2ccccc2)C1` [EXAMPLE 180, 3-[[1-[(3R,4R)-1-acetyl-3-phenyl-piperidine-4-carbonyl]-4-hydroxy-4-piperidyl]methyl]-7-(3-chlorophenyl)pyrrolo[2,3-d]pyrimidin-4-one], in assay [2], it took 0.089 µM to reach half-maximal inhibition (IC50). Consider `CC(=O)N1CC[C@@H](C(=O)N2CCC(O)(Cn3cnc4c(ccn4-c4ccc(Cl)cc4)c3=O)CC2)[C@H](c2ccccc2)C1` [EXAMPLE 181, 3-[[1-[(3R,4R)-1-acetyl-3-phenyl-piperidine-4-carbonyl]-4-hydroxy-4-piperidyl]methyl]-7-(4-chlorophenyl)pyrrolo[2,3-d]pyrimidin-4-one], for which, in assay [2], the IC50 is 0.0742 µM. Same read-out and setting: then `CC(C)(C)C(=O)N1CC[C@@H](C(=O)N2CCC(O)(Cn3cnc4c(ccn4-c4ccccc4)c3=O)CC2)[C@H](c2ccccc2)C1` [EXAMPLE 184, 3-[[1-[(3R,4R)-1-(2,2-dimethylpropanoyl)-3-phenyl-piperidine-4-carbonyl]-4-hydroxy-4-piperidyl]methyl]-7-phenyl-pyrrolo[2,3-d]pyrimidin-4-one], with 0.083 µM. With `CC(C)(C)CC(=O)N1CC[C@@H](C(=O)N2CCC(O)(Cn3cnc4c(ccn4-c4ccccc4)c3=O)CC2)[C@H](c2ccccc2)C1` [EXAMPLE 187, 3-[[1-[(3R,4R)-1-(3,3-dimethylbutanoyl)-3-phenyl-piperidine-4-carbonyl]-4-hydroxy-4-piperidyl]methyl]-7-phenyl-pyrrolo[2,3-d]pyrimidin-4-one], in assay [2], inhibition was half-maximal at 0.0885 µM (IC50).
